# Laboratory results as given in ChEMBL document CHEMBL1139202, “Inhibition of mycobacterial arylamine N-acetyltransferase contributes to anti-mycobacterial activity of Warburgia salutaris” (Bioorg Med Chem, 2007).
# Test system: Mycobacterium tuberculosis
# Test: Antimycobacterial activity against wild type Mycobacterium bovis BCG after 21 days
# Type: functional, organism-based
# Conditions: variant bovis BCG
smiles,measurement,value
CC(=O)O[C@@H]1C=C2C(=O)O[C@@H](O)[C@]2(O)[C@@]2(C)CCCC(C)(C)[C@H]12,Activity,Dose-dependent effect
